The source of these data is US7732451B2, “Naphthalene-containing melanocortin receptor-specific small molecule” (Palatin Technologies, Inc., priority 2002, dated 2010).

The target of one experiment is T1, hMC5-R (Homo sapiens, UniProt P33032).
T1 construct: expressed in transfected cells
The experiment in a line: competitive inhibition binding assay, 125I-NDP-α-MSH, membranes. The conditions noted are these: for inhibition at 1 µM: 1 μM compound, average of triplicates, read-out: Inhibition at 1 μM MC5-R; for Ki: read-out: Ki (nM) MC5-R. How it is done: (§1) A competitive inhibition binding assay was conducted using membranes prepared from hMC3-R, hMC4-R, hMC5-R, and B-16 mouse melanoma cells (containing MC1-R) using 0.4 nM ^125I-NDP-α-MSH (New England Nuclear, Boston, Mass., USA) in 50 mM HEPES buffer containing 1 mM MgCl2, 2 mM CaCl2, and 5 mM KCl, at pH 7.2. The assay tube also contained a chosen concentration of the test compound of this invention, for determining its efficacy in inhibiting the binding of ^125I-NDP-α-MSH to its receptor.
(§2) Incubation was for 90 minutes at room temperature, after which the assay mixture was filtered and the membranes washed three times with ice cold buffer. The filter was dried and counted in a gamma counter for remaining radioactivity bound to the membranes. 100% specific binding was defined as the difference in radioactivity (cpm) bound to cell membranes in the absence and presence of 1 μM α-MSH. […] Each assay was conducted in triplicate and the actual mean values are described. The Ki (nM) of certain compounds of the invention were determined.

The target of a further experiment is T2, hMC4-R (Homo sapiens, UniProt P32245).
T2 construct: expressed in transfected cells
T2 sequence (P32245 whole entry): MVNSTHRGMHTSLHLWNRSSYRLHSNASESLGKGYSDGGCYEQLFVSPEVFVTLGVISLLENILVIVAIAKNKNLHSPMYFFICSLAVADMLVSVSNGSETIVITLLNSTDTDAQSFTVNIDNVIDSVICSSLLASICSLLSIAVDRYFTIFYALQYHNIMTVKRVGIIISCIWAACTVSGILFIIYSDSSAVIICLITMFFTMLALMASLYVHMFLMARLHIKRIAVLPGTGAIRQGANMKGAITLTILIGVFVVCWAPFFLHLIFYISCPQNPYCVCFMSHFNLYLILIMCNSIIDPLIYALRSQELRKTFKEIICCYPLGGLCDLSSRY
The experiment is described as above. The conditions noted are these: for inhibition at 1 µM: 1 μM compound, average of triplicates, read-out: Inhibition at 1 μM MC4-R; for Ki: read-out: Ki (nM) MC4-R. The protocol:
as §1, §2

A further experiment addresses T3, hMC3-R (Homo sapiens, UniProt P41968).
T3 construct: expressed in transfected cells
The description is as above. As to conditions: for inhibition at 1 µM: 1 μM compound, average of triplicates, read-out: Inhibition at 1 μM MC3-R; for Ki: read-out: Ki (nM) MC3-R. How it is done: as §1, §2

In experiment [1] the target is T4, MC1-R (B-16 mouse melanoma cells) (Mus musculus, UniProt Q01727).
T4 construct: B-16 mouse melanoma cells (containing MC1-R); endogenous in cells; host or cells: B-16 mouse melanoma cells
T4 sequence (Q01727 whole entry): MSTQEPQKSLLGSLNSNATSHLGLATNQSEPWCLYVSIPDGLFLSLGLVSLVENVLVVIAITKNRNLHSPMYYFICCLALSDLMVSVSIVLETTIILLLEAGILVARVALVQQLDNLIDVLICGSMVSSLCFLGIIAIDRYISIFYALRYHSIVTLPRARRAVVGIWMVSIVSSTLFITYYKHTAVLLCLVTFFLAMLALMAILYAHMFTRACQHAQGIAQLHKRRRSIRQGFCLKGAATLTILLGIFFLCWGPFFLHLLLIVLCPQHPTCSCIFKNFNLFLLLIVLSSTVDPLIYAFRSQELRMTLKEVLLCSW
The experiment is described as above. As to conditions: for inhibition at 1 µM: 1 μM compound, average of triplicates, results less than 0% reported as 0%; for Ki: read-out: Ki (nM) MC1-R. How it is done:
as §1, §2

For experiment [2], the target named is T5, MC4-R (HEK-293 cells expressing MC4-R) (Homo sapiens, UniProt P32245).
T5 construct: expressed in transfected cells; host or cells: HEK-293
T5 sequence (P32245 whole entry): as the sequence (P32245 whole entry) above
The experiment in a line: cAMP assay for agonist/antagonist status. It counts as cell-based. As to conditions: antagonism = inhibition of α-MSH-induced cAMP. How it is done: (§3) Functional evaluation of compounds at melanocortin receptors was performed by measuring the accumulation of intracellular cAMP in HEK-293 cells expressing MC3-R, MC4-R or MC5-R, and in B-16 mouse melanoma cells (containing MC1-R). Cells, suspended in Earle's Balanced Salt Solution containing 10 mM HEPES, pH 7.5, 5 mM MgCl2, 1 mM glutamine, 0.1% albumin and 0.6 mM 3-isobutyl-1-methyl-xanthine, a phosphodiesterase inhibitor, were plated in 96 well plates at a density of 0.5×10^5 cells per well. Cells were incubated with the test compounds in the presence or absence of α-MSH for 1 hour at 37° C. cAMP levels were measured by EIA (Amersham) in the cell lysates. Data analysis and EC50 values were determined using nonlinear regression analysis with Prism Graph-Pad software.
(§4) The agonist/antagonist status with respect to MC4-R of certain compounds of the invention was determined. Antagonistic activity was determined by measuring the inhibition of α-MSH-induced cAMP levels following exposure to the compounds as in Example 2.

Experiment [3] in a line: ICV feeding studies, change in food intake and body weight. The class given is in vivo, rat. The conditions noted are these: 1 nmol, male Sprague-Dawley rats; for change in weight: 24 hour. How it is done:
(§5) Change in food intake and body weight was evaluated for selected compounds. Male Sprague-Dawley rats weighing ˜300 g at the beginning of the experiment were kept on a 12 hour on/off light cycle. Lights out was adjusted to 12:00 p.m. to allow for dosing just prior to the start of their dark period. Rats (8-12/group) were fed powdered chow and water ad libitum. For 1 week before treatment, 24-hour food intake and body weight change was recorded to assess a baseline for the group during vehicle treatment. The rats were dosed ICV with vehicle or selected compounds (1-3 nmol). The changes in body weight and food intake for the 24 hour period after dosing were determined. The changes in body weight and food intake for the 48 hour period, and in same cases for 72 hours as well, after dosing were also measured to determined reversal of changes in body weight and food intake effect back to baseline.

The nature of experiment [4]: IV feeding studies, change in food intake and body weight. It counts as in vivo, rat. As to conditions: 3 μg/Kg, male Sprague-Dawley rats; for change in weight: 24 hour. How it is done: as §5, with “The rats were dosed ICV with vehicle or selected compounds (1-3 nmol).” left out
Experiment [5] deals with T6, MC5-R (HEK-293 cells expressing MC5-R) (Homo sapiens, UniProt P33032).
T6 construct: expressed in transfected cells; host or cells: HEK-293
T6 sequence (P33032 whole entry): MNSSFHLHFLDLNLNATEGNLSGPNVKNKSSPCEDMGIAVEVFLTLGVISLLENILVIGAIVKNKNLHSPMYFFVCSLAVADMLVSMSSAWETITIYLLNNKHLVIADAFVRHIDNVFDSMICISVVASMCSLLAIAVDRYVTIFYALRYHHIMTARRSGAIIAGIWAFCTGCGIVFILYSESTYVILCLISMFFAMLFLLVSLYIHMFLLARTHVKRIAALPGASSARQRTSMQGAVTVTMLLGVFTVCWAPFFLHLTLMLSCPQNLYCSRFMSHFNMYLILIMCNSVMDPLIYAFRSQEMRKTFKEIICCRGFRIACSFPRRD
The experiment in a line: cAMP assay for agonist/antagonist status. The class given is cell-based. As to conditions: antagonism = inhibition of α-MSH-induced cAMP. How it is done: as §3, §4

Experiment [6] addresses T4, MC1-R (B-16 mouse melanoma cells). As to the kind of experiment: cAMP assay for agonist/antagonist status. The class given is cell-based. As to conditions: antagonism = inhibition of α-MSH-induced cAMP. How it is done: as §3, §4
Experiment [7] in a line: penile erection (PE) studies in male rats. It counts as in vivo, rat. As to conditions: IV, dose levels of 0.3, 3 and 30 μg/Kg. The protocol: The ability of compounds to induce penile erection (PE) in male rats was evaluated with selected compounds. Male Sprague-Dawley rats weighing 200-250 g were kept on a 12 hour on/off light cycle with food and water ad libitum. All behavioral studies were performed between 10 a.m. and 5 p.m. Groups of 4-8 rats were treated with compounds at a variety of doses via intravenous (IV) or intracerebroventricular (ICV) routes. Immediately after treatment, rats were placed into individual polystyrene cages (27 cm long, 16 cm wide, and 25 cm high) for behavioral observation. The iv and icv treated rats were observed respectively for 30 minutes and 120 min and the number of yawns, grooming bouts and PEs were recorded in 10-minute bins.

T3 sequence (P41968 whole entry): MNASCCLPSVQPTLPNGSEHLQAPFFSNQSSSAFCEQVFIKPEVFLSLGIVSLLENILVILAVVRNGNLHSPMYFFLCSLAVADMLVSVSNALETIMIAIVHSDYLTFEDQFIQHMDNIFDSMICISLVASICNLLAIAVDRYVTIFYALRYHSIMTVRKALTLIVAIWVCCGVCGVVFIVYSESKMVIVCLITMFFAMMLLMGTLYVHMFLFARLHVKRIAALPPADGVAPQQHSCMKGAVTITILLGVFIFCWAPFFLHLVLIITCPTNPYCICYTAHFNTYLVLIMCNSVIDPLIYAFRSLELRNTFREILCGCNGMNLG
T1 sequence (P33032 whole entry): as the sequence (P33032 whole entry) above

Consider `Cc1ccc(C[C@@H](N)C(=O)N2C[C@@H](C)N(CCc3ccc4ccccc4c3)C[C@@H]2CCCNC(=N)N)c(C)c1` [Example 16, N-{3-[1-[2(R)-Amino-3-(2,4-dimethyl-phenyl)-propionyl]-5(R)-methyl-4-(2-naphthalen-2-yl-ethyl)-piperazin-2(S)-yl]-propyl}-guanidine], for which the inhibition at 1 µM is 73% at hMC5-R, 98% on hMC4-R, 67% on hMC3-R and 22% in experiment [1]. Moreover, the inhibitory constant (Ki) at hMC5-R stood at 717 nM; on hMC4-R, 11 nM; at hMC3-R it was 157 nM; in [1] it was 1220 nM. Also, the “agonist/antagonist status as to MC4-R” value in [2] is “agonist”. Also, the “24 hour change in food intake” value in [3] was -2.6 g; in experiment [4] it was -7.3 g. Besides, the change in weight was -5 g in [3] and -6.3 g in experiment [4].
For the molecule `C[C@@H]1CN(C(=O)[C@H](N)Cc2ccc(Cl)cc2)[C@@H](CCCNC(=N)N)CN1CCc1ccc2ccccc2c1` [Example 15, N-{3-[1-[2(R)-Amino-3-(4-chloro-phenyl)-propionyl]-5(R)-methyl-4-(2-naphthalen-2-yl-ethyl)-piperazin-2(S)-yl]-propyl}-guanidine], the inhibition at 1 µM on hMC5-R came to 52%; on hMC4-R, 97%; on hMC3-R, 61%; in [1], 85%. Moreover, the Ki was 551 nM at hMC5-R, 11 nM on hMC4-R, 160 nM at hMC3-R and 94 nM in experiment [1]. Also, the “agonist/antagonist status as to MC4-R” value in [2] is on record as “agonist”. Besides, the “agonist/antagonist status as to MC5-R” value in experiment [5] was “agonist”. In addition, in experiment [6], the “agonist/antagonist status as to MC1-R” value is “agonist”. Besides, the PE effect entry in [7] is given as “no observed effect”. For the same molecule, the “24 hour change in food intake” value was -3.9 g in experiment [3] and -9.6 g in experiment [4]. Moreover, the values for the change in weight in experiment [3] and in experiment [4] were -3.9 g and -6.6 g, respectively.
